We go through ten molecules from patent publication US8143424B2, “Thyroid like compounds” (Torrent Pharmaceuticals Ltd., priority 2007, dated 2012).

One data set concerns the target T1, THR α1 (Homo sapiens, UniProt P10827).
T1 construct: GAL4 (plasmid pGAL4); expressed in transfected cells; host or cells: COS7
T1 sequence (P10827 1-410 isoform P10827-2): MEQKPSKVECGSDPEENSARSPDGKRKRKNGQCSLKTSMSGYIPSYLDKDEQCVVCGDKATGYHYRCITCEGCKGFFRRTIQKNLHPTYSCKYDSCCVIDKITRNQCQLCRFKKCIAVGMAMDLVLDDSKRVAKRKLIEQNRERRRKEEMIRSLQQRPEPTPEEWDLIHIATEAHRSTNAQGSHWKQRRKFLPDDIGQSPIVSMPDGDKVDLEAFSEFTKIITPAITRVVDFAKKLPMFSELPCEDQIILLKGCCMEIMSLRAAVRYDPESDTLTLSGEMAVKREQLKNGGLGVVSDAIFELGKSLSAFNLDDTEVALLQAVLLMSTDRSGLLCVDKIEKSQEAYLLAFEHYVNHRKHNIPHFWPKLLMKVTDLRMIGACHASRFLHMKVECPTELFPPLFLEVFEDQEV
The data set can be described thus: Thyroid α1 transactivation (TRE reporter, luciferase) in COS7 cells. It counts as cell-based. The settings on record: Conc. 20 uM, 24 hours, vs vehicle control. As for the experimental part: (§1) Compounds of the present invention were tested for their effect on O2 consumption (metabolic effect), LDL cholesterol, glucose levels, insulin levels and food consumption (appetite stimulant) and also to assess transcriptional activity of thyroid hormone receptor by in vitro TRE (Thyroid receptor element) reporter assay for TRα1 and TRβ1.
(§2) COS7 cells were transiently transfected with pGAL4 […]/Thyroid α1 or pGAL4/Thyroid β1 and pLuc Pur. The cells were cotransfected with pLacZNorm for normalization of transfection efficiency. Transfected cells were then treated with different concentrations of compounds of present invention, vehicle for 24 hours.
(§3) Cells were the lysed and luciferase activity was monitored in all samples. Results were expressed as fold activation as compared to vehicle control.
(§4) Results: Thyroid(α1/β1) transactivation in COS7 cells.

For data set [1], the system named is C57BL6 mice fed High Fat Diet. The data set can be described thus: Heart weight in High Fat Diet fed mice. To be noted: Dose 11 μM/kg intraperitoneally, end of experiment. It counts as in vivo. As for the experimental part: (§5) C57BL6 mice (14-18 weeks age), fed for 8-12 weeks with High Fat Diet (45% kcal fat) were used for the study. The mice were placed in individual housing for one week. The mice were then kept in oxymax cages for 48 h for acclimatization. Basal recordings of oxygen consumption and carbon dioxide production for each mouse were recorded with indirect open circuit calorimeter (Oxymax, Columbus Instruments, USA (Ling fu et al., Endocrinology (2004); 145 (6); 2591-3). On the basis of body weight and basal oxygen consumption, mice were randomized and divided into two groups. • I) Vehicle treated group • II) Test compound treated group
(§6) The mice were treated with vehicle and test compounds intraperitoneally for 7-15 days. On the day 8, Oxygen consumption was measured for individual mouse 30 min after the drug treatment and % change with respect to vehicle is calculated.
(§7) During the experiment food consumption was monitored daily. At the end of the experiment the animals were scarified and the heart weights were recorded.

In another data set the target is T2, THR β1 (Homo sapiens, UniProt P10828).
T2 construct: GAL4 (plasmid pGAL4); expressed in transfected cells; host or cells: COS7
T2 sequence (P10828 1-461): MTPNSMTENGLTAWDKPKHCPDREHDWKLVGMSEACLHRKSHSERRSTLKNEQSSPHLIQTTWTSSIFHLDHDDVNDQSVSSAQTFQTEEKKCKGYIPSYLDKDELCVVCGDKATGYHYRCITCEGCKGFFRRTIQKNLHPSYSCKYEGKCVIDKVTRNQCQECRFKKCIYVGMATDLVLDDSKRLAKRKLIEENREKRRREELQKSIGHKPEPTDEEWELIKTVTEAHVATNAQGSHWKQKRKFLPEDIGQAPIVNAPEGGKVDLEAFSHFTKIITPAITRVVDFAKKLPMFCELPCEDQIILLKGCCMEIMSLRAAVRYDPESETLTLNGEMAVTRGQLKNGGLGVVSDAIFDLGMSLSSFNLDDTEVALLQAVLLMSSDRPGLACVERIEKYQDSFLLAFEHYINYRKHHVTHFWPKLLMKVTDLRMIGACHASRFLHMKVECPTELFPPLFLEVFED
The data set is described as follows: Thyroid β1 transactivation (TRE reporter, luciferase) in COS7 cells. It counts as cell-based. The settings on record: Conc. 20 uM, 24 hours, vs vehicle control. As for the experimental part: as §1, §2, §3, §4

The subject of data set [2] is C57BL6 mice fed High Fat Diet. The data set is described as follows: Food consumption in High Fat Diet fed mice. The data set is classed as in vivo. To be noted: Dose 11 μM/kg intraperitoneally, 7-15 days. As for the experimental part:
as §5, §6, §7

The subject of data set [3] is C57BL6 mice fed High Fat Diet. The data set is described as follows: Oxygen consumption (Oxymax indirect calorimeter) in High Fat Diet fed mice. It counts as in vivo. To be noted: Dose 11 μM/kg intraperitoneally, day 8, % change vs vehicle; for change in vivo at 11 µM, 11 µmol/kg: Mus musculus, ip, 192 h, read-out: increase in O2 cons. How it is done: as §5, §6

Consider `Cc1nn(CCC(=O)O)c(C)c1Oc1ccc(O)c2c1CCC2` [Compound 1, 3-[4-(7-Hydroxy-indan-4-yloxy)-3,5-dimethyl-pyrazol-1-yl]-propionic acid], for which, at THR α1, the “α1 Fold Activation” value was 1 Fold. For the same molecule, the “increase in Heart weight with reference to vehicle” value (shortened to “increase in Heart weight”) in data set [1] is recorded as “No change”. In addition, the “β1 Fold Activation” value at THR β1 stood at 1 Fold. Further, the “increase in food consumption with reference to vehicle” value (“increase in food consumption” for short) in data set [2] is given as “No change”. Moreover, the change in vivo at 11 µM, 11 µmol/kg in data set [3] is under 5%.

As for `Cc1cc(Cc2c(C)nn(CCC(=O)O)c2C)c2c(c1O)CCC2` [Compound 9, 3-[4-(7-Hydroxy-6-methyl-indan-4-ylmethyl)-3,5-dimethyl-pyrazol-1-yl]-propionic acid], the “α1 Fold Activation” value at THR α1 was determined as 2.5 Fold. The “increase in Heart weight” value in data set [1] is “No change”. Also, the “β1 Fold Activation” value on THR β1 was determined as 2 Fold. The “increase in food consumption” value in data set [2] is given as “No change”. Further, the change in vivo at 11 µM, 11 µmol/kg in data set [3] is over 5%.

Turning to `CCc1nn(CCC(=O)O)c(CC)c1Cc1cc(C)c(O)c2c1CCC2` [Compound 20, 3-[3,5-Diethyl-4-(7-hydroxy-6-methyl-indan-4-ylmethyl)-pyrazol-1-yl]-propionic acid], in data set [1], the “increase in Heart weight” value was “No change”. For the same molecule, in data set [2], the “increase in food consumption” value is “No change”. The change in vivo at 11 µM, 11 µmol/kg in data set [3] was over 5%.

Regarding “3-[4-(7-Hydroxy-indan-4-yloxy)-3-thiophen-2-yl-pyrazol-1-yl]-propionic acid And 3-[4-(7-Hydroxy-indan-4-yloxy)-5-thiophen-2-yl-pyrazol-1-yl]-propionic acid [Compound 7]”, in data set [1], the “increase in Heart weight” value is reported as “No change”. For the same molecule, in data set [2], the “increase in food consumption” value is given as “No change”. Further, in data set [3], the “increase in O2 cons” value is “** (** = Increase > 5%)”.

Regarding “7-[1-(1H-Tetrazol-5-ylmethyl)-3-thiophen-2-yl-1H-pyrazol-4-yloxy]-indan-4-ol And 7-[1-(1H-Tetrazol-5-ylmethyl)-5-thiophen-2-yl-1H-pyrazol-4-yloxy]-indan-4-ol [Compound 8]”, the “α1 Fold Activation” value on THR α1 is 3 Fold. The “increase in Heart weight” value in data set [1] is given as “No change”. Moreover, at THR β1, the “β1 Fold Activation” value came to 1 Fold. Besides, in data set [2], the “increase in food consumption” value is reported as “No change”. Also, the “increase in O2 cons” value in data set [3] was “** (** = Increase > 5%)”.

As to `Cc1nn(CCC(=O)O)c(C)c1Cc1ccc2[nH]ccc2c1` [Compound 2, 3-[4-(1H-Indol-5-ylmethyl)-3,5-dimethyl-pyrazol-1-yl]-propionic acid], at THR α1, the “α1 Fold Activation” value is given as 1 Fold. The “increase in Heart weight” value in data set [1] was “No change”. The “β1 Fold Activation” value at THR β1 amounted to 1 Fold. In addition, in data set [2], the “increase in food consumption” value was “No change”. The change in vivo at 11 µM, 11 µmol/kg in data set [3] is under 5%.

Consider `Cc1nn(CC(=O)Nc2nnn[nH]2)c(C)c1Oc1ccc(O)c2c1CCC2` [Compound 6, 2-[4-(7-Hydroxy-indan-4-yloxy)-3,5-dimethyl-pyrazol-1-yl]-N-(1H-tetrazol-5-yl)-acetamide], for which the “increase in Heart weight” value in data set [1] is “No change”. For the same molecule, in data set [2], the “increase in food consumption” value was “No change”. Besides, in data set [3], the change in vivo at 11 µM, 11 µmol/kg was under 5%.

In the case of `COc1c(C)cc(Cc2c(C)nn(CCC(=O)O)c2C)c2c1CCC2` [Compound 14, 3-[4-(7-Methoxy-6-methyl-indan-4-ylmethyl)-3,5-dimethyl-pyrazol-1-yl]-propionic acid], the “increase in Heart weight” value in data set [1] is recorded as “No change”. Further, the “increase in food consumption” value in data set [2] is on record as “No change”. Also, the change in vivo at 11 µM, 11 µmol/kg in data set [3] was under 5%.

For the molecule `Cc1nn(Cc2nnn[nH]2)c(C)c1Oc1ccc(O)c2c1CCC2` [Compound 3, 7-[3,5-Dimethyl-1-(1H-tetrazol-5-ylmethyl)-1H-pyrazol-4-yloxy]-indan-4-ol], the “α1 Fold Activation” value on THR α1 is reported as 1 Fold. For the same molecule, the “increase in Heart weight” value in data set [1] was “No change”. The “β1 Fold Activation” value at THR β1 is recorded as 1 Fold. The “increase in food consumption” value in data set [2] was “No change”. For the same molecule, the change in vivo at 11 µM, 11 µmol/kg in data set [3] was over 5%.

On to `CCc1nn(CC(=O)O)c(CC)c1Cc1cc(C)c(O)c2c1CCC2` [Compound 19, [3,5-Diethyl-4-(7-hydroxy-6-methyl-indan-4-ylmethyl)-pyrazol-1-yl]-acetic acid], for which the “increase in Heart weight” value in data set [1] is recorded as “No change”. In data set [2], the “increase in food consumption” value is “No change”. Also, the change in vivo at 11 µM, 11 µmol/kg in data set [3] was over 5%.
